Source: PubChem BioAssay AID624385 (Sanford-Burnham Center for Chemical Genomics, 2012)
Activity calls are given as the source filed them. How the calls were made is not given here.

Molecular target: Small ubiquitin-related modifier 2 (Homo sapiens) (UniProt P61956)
Experiment: SUMO2–SIM peptide binding inhibitors, dose response, selectivity assay for SUMO1 interaction inhibitor project, biochemical, fluorescence polarization, uHTS hits (AID 624385)

Chain of Small ubiquitin-related modifier 2 (Homo sapiens) (P61956 whole entry, looked up): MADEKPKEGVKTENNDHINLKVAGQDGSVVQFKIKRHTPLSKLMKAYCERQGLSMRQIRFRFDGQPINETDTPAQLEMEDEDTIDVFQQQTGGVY

IC50 | Structure (SMILES)
inactive | C[c-]1[c-](C)[c-](C)[c-](C)[c-]1C.[Fe].c1cc2nccc(N3CCCC3)[c-]2c1 (configuration not stated)
> 66 µM (inactive) | N#CC(C(=O)Nc1cccc(Cl)c1)=C1Nc2ccccc2N1
